According to publication PMC8379681 (Cell reports, 2021):

Target: SPAK (Homo sapiens, UniProt Q9UEW8)
Assay type: biochemical

IC50: 8.23 µM
SMILES: Nc1ncnc2occ(-c3ccc(NC(=O)Nc4cc(C(F)(F)F)ccc4F)cc3)c12 [YU252, YU239252]
